Test [1] has as its system ob/ob and db/db mice. The note with it: 8 day administration; cited from earlier work.
The subject of test [2] is H-2 Kb cells. Description: Glucose uptake in H-2 Kb cells (in vitro cellular test). The class given is cell-based, mouse. To be noted: Mus musculus; differentiated H-2 Kb muscle cells, 4 hours incubation, 2-deoxy-D-[3H]glucose 10 min; read-out: activity: Concentration of compound for a glucose uptake equal or higher to glucose uptake induced by insulin (170 nM). As for the experimental part:
The following cellular test allows the determination of the effect of AMPK activators such as compounds of formula (I) onto glucose uptake in a muscle cellular model.
H-2 Kb cells derived from heterozygous H-2 Kb tsA58 transgenic mouse were grown in 24-well in plates coated with matrigel and were cultured at 33° C. for 4 days under permissive conditions, as described previously by Fryer et al. (Diabetes 49 (12): 1978, 2000).
For differentiation in muscle, cells were switched to non-permissive culture conditions (37° C. in the absence of interferon-γ). After 3 days, cells were incubated for 4 hours in DMEM 1 g/l glucose culture medium containing different concentrations of the tested molecules. Then glucose uptake was measured by incubating the cells for 10 min with radiolabelled 2-deoxy-D-[1, 2 ^3H] glucose. Glucose uptake was terminated by rapidly washing the plates 2 times with ice-cold NaCl 0.9%. The cells were then solubilized in 0.1N NaOH for 30 min. Radioactivity was determined by liquid scintillation counting.
Activity table III: Concentration of compound (1) for a glucose uptake equal or higher to glucose uptake induced by insulin (170 nM)

The target of test [3] is T1, AMPK protein (recombinant α1β1γ2) (Homo sapiens, UniProt Q13131+Q9Y478).
T1 construct: made in house; host or cells: E. coli
T1 sequence (Q13131 whole entry): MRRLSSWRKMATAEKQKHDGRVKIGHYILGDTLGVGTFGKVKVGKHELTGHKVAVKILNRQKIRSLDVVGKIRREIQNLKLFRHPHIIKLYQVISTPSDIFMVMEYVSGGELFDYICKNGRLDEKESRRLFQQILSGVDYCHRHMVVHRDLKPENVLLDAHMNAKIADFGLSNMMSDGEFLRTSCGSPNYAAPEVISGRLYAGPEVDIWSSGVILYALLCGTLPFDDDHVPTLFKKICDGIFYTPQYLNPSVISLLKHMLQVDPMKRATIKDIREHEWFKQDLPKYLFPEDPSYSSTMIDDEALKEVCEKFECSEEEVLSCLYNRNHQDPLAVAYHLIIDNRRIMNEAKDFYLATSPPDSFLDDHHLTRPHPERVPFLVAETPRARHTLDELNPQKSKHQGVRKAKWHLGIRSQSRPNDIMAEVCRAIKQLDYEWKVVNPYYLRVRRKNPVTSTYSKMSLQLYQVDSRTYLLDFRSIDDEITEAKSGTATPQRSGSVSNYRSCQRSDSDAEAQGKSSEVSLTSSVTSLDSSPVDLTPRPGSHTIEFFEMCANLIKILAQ
T1 sequence (Q9Y478 whole entry): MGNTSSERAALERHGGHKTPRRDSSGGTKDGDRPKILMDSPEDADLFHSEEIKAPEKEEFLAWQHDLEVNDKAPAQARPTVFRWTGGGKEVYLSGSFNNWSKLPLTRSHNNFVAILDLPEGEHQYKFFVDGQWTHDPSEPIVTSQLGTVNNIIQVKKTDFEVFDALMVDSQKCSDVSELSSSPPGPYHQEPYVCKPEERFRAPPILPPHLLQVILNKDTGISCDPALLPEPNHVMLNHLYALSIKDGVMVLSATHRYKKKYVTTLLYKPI
T1 sequence (Q9UGJ0 whole entry partner): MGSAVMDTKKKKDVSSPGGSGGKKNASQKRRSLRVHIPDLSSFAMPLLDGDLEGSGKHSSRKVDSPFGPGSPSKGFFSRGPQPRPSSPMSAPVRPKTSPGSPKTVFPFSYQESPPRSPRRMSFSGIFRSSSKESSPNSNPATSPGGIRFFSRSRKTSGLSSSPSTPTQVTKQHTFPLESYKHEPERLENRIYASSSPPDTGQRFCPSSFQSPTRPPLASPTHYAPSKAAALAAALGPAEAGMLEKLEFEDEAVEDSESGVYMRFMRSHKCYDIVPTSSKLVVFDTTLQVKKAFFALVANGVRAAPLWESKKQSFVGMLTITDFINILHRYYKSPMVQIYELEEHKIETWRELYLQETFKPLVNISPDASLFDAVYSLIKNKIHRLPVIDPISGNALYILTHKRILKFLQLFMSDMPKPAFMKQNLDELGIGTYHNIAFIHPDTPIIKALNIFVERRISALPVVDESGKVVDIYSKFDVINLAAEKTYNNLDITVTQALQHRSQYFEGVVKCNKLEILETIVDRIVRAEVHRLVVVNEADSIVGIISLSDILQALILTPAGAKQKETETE
Description: AMPK enzymatic activity (Delfia, AMARA peptide). The class given is biochemical. To be noted: compound 30 μM vs AMP 30 μM; 125 μM ATP; 30 min room temperature; ratio 90% or higher = direct activator. As for the experimental part:
The following biological test allows the determination of the efficacy of such compounds of formula (I) onto AMPK protein (recombinant α1β1γ2).
Human recombinant AMPK enzyme was expressed in E. Coli and was reactivated in vitro by LKB1 prior to enzyme activity determination.
AMPK enzyme activities were assayed by using A Delfia technology. AMPK enzyme activities were carried out in microtiter plates (50 mM Hepes buffer, pH 7.4 with 125 μM ATP respectively) in the presence of a synthetic peptide substrate (AMARAASAAALARRR, the “AMARA” peptide) and activators in serial dilutions. Reactions were initiated by the addition of AMPK (50-100 ng). Following mixing, the plates were incubated for 30 min at room temperature. Enzyme activity was assayed by using an anti-phosphoserine antibody to measure the quantity of phosphate incorporated into the AMARAA.
Ratio between the % of control (basal activity) of compound of formula (I) at 30 μM and the % of control (basal activity) of AMP (natural substrate) at 30 μM. Compounds of formula (I) in the table II are considered as direct activator of AMPK if the ratio is 90% or higher.

Bounds are passed on as bounds.

With `NC(=O)c1ncn([C@@H]2O[C@H](CO)[C@@H](O)[C@H]2O)c1N` [AICAR, 5-aminoimidazole-4-carboxamide riboside], the reduces blood glucose in test [1] is given as 35%.
On to `N#Cc1ccc(-c2c(O)c3c(-c4ccc(-c5ccccc5)cc4)csc3[nH]c2=O)cc1` [Compound 22, 3-biphenyl-4-yl-5-(4-cyanophenyl)-4-hydroxy-6,7-dihydro-thieno[2,3-b]pyridin-6-one], for which, in test [2], the EC (glucose uptake equal or higher to insulin 170 nM) was more than 10 µM. Also, in test [3], the “activity: Ratio between the % of control (basal activity) of compound of formula (I) at 30 μM and the % of control (basal activity) of AMP at 30 μM” value turned out to be 152%.
For `Cc1ccccc1-c1ccc(-c2csc3[nH]c(=O)c(-c4cccnc4)c(O)c23)cc1` [Compound 35, 4-hydroxy-3-(2′-methylbiphenyl-4-yl)-5-pyridin-3-yl-6,7-dihydro-thieno[2,3-b]pyridin-6-one], in that order: more than 10 µM and 161%.
For the compound `Cc1cccc(-c2ccc(-c3csc4[nH]c(=O)c(-c5cccnc5)c(O)c34)cc2)c1` [Compound 36, 4-hydroxy-3-(3′-methylbiphenyl-4-yl)-5-pyridin-3-yl-6,7-dihydro-thieno[2,3-b]pyridin-6-one], in test [2], the EC (glucose uptake equal or higher to insulin 170 nM) is more than 10 µM. In test [3], the “activity: Ratio between the % of control (basal activity) of compound of formula (I) at 30 μM and the % of control (basal activity) of AMP at 30 μM” value stood at 156%.
